Assay: xn = mol fraction of the nth substance listed
Conditions: 100 kPa

CCCn1cc[n+](C)c1C.O=S(=O)([N-]S(=O)(=O)C(F)(F)F)C(F)(F)F + O=C1CCCO1
electrical conductivity [S/m]
Conditions	293.15 K	298.15 K	303.15 K	308.15 K	313.15 K	318.15 K	323.15 K
x2 = 0	0.196	–	0.338	0.417	0.503	0.59	0.687
x2 = 0.1289	0.24	0.312	–	0.479	0.578	0.678	0.788
x2 = 0.2006	–	0.351	0.444	–	0.65	0.759	–
x2 = 0.3027	0.343	0.428	0.537	0.646	0.779	0.907	1.02
x2 = 0.3969	0.451	0.539	0.657	0.789	0.935	1.09	1.23
x2 = 0.4952	0.593	0.708	0.844	0.995	1.16	–	1.46
x2 = 0.5969	0.797	0.927	1.07	1.21	1.38	1.54	1.7
x2 = 0.6992	–	1.13	1.27	–	–	1.74	1.92
x2 = 0.8002	–	1.31	1.45	1.59	1.73	–	2.07
x2 = 0.8508	1.25	1.38	–	1.63	–	1.91	2.06
x2 = 0.8999	–	1.32	1.44	1.55	–	1.81	1.94
x2 = 0.9495	0.875	0.954	1.03	–	1.2	1.29	1.39

CC[n+]1ccn(C)c1C.O=S(=O)([N-]S(=O)(=O)C(F)(F)F)C(F)(F)F + O=C1CCCO1
electrical conductivity [S/m]
Conditions	293.15 K	298.15 K	303.15 K	308.15 K	313.15 K	318.15 K	323.15 K
x2 = 0	0.309	–	0.468	0.567	0.67	0.783	–
x2 = 0.0999	0.383	0.472	0.574	0.684	0.805	0.938	–
x2 = 0.186	0.476	0.572	0.686	0.803	0.934	1.07	1.21
x2 = 0.3071	–	0.742	0.868	1.01	1.16	1.31	1.45
x2 = 0.4005	0.726	0.864	1.01	1.17	1.33	1.5	1.61
x2 = 0.4996	0.881	1.01	1.17	–	1.51	–	1.81
x2 = 0.5987	1.06	1.22	1.37	1.53	1.7	1.88	–
x2 = 0.6999	1.24	–	1.57	1.74	1.91	2.08	2.21
x2 = 0.7999	–	–	1.69	1.85	2.01	2.19	2.39
x2 = 0.8474	1.43	1.58	1.73	1.86	2.01	2.15	–
x2 = 0.8999	1.35	1.48	1.6	–	–	1.97	2.07
x2 = 0.9507	–	1	1.08	1.16	1.24	1.32	–

O=C1CCCO1 + CCCC[N+]1(C)CCCC1.O=S(=O)([N-]S(=O)(=O)C(F)(F)F)C(F)(F)F
x1 = 1
Conditions	electrical conductivity [S/m]	viscosity [mPa·s]
298.15 K	0.001	1.73
303.15 K	0.001	1.63
308.15 K	0.001	1.52
313.15 K	0.001	1.42
318.15 K	0.001	1.35
323.15 K	0.002	1.3

Reference: a compilation of properties of binary mixtures (doi:10.2298/jsc190413047v)
